# Assay results as given in ChEMBL document CHEMBL1201862, “PubChem BioAssay data set” (2004).
# Activity calls are given as the source filed them.
# Assays:
# [1] = Late stage counterscreen for inhibitors of Trypanosoma brucei methionyl tRNA synthetase (MetRS): Luminescence-based cell-based high throughput dose response assay to identify compounds that are cytotoxic to Jurkat human T lymphocyte cells.; type: functional
# [2] = biological target: T1, Methionyl-tRNA synthetase, putative (Trypanosoma brucei brucei, UniProt Q38C91); type: functional, Trypanosoma brucei brucei strain 927/4 GUTat10.1
# T1 sequence (Q38C91 whole entry): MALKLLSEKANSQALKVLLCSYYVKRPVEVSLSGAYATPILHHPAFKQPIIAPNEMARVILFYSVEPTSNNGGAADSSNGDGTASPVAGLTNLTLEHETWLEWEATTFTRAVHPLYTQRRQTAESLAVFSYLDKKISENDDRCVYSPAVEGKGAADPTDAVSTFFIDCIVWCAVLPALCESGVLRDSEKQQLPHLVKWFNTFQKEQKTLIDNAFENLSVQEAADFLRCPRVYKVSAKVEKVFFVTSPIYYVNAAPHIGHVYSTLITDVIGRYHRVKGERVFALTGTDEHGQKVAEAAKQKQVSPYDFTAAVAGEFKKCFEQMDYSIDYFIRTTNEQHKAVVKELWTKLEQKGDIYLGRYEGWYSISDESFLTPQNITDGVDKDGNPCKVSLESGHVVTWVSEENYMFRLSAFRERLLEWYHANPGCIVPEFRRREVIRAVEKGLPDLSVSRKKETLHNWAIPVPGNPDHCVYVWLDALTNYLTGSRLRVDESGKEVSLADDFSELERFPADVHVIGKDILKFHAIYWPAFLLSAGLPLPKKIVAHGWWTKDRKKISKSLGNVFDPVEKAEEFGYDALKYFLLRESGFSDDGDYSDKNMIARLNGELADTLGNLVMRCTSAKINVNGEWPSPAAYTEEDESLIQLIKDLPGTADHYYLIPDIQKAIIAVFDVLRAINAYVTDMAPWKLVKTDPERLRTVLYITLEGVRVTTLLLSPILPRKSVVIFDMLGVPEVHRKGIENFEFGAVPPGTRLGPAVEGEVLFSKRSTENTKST
# [3] = biological target: T1, Methionyl-tRNA synthetase, putative; type: functional, Trypanosoma brucei brucei strain 927/4 GUTat10.1; remark: listed apart in the source
# [4] = Counterscreen for inhibitors of Trypanosoma brucei methionyl tRNA synthetase (MetRS): Luminescence-based cell-based high throughput dose response assay to identify compounds that are cytotoxic to Jurkat human T lymphocyte cells.; type: functional
# Protein Tat = Protein Tat (Human immunodeficiency virus type 1 group M subtype B (isolate HXB2)(HIV-1), UniProt P04608); type: functional;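 also: tat binding to TAR RNA read out by fluorescence polarization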
# Sequence of Protein Tat (P04608 whole entry, the tested form may be a part): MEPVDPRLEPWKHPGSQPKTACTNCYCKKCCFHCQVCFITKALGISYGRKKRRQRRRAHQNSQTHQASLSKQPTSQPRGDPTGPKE
# [5] = biological target: T2, Oxysterols receptor LXR-beta (Homo sapiens, UniProt P55055); type: functional, cell-based;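 also: Cell-based luminescence dose-response assay of agonist activity at LXR, run as a confirmatory counterscreen to a daf-12 agonist screen; HEK293 cells with Gal4-LXR fusion and GAL4-driven luciferase reporter; agonist potency from rising luciferase signal of a Gal4-LXR reporter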
# T2 sequence (P55055 whole entry): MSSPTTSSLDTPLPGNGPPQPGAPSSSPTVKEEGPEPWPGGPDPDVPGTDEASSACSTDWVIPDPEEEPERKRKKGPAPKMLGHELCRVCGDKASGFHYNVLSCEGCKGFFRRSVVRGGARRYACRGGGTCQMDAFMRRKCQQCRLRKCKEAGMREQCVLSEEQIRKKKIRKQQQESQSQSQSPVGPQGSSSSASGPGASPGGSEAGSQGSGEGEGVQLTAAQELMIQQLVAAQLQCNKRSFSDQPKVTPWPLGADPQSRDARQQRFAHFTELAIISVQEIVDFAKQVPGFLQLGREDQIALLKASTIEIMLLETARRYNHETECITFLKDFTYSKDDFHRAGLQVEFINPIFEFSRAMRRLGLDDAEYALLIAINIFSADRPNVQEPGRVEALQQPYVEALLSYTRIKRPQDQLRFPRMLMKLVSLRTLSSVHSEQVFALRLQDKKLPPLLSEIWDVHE
# [6] = HEp-2 cell cytotoxicity, dose response, cytotoxicity control for RSV inhibitor project, HTS (AID 2410); type: functional; details: human respiratory syncytial virus
# cells [7] = assay: cells
# [8] = biological target: Dual specificity tyrosine-phosphorylation-regulated kinase 1A (Rattus norvegicus, UniProt Q63470); type: biochemical, Homo sapiens
# [9] = P. falciparum Dd2 growth inhibitors, dose response, SYBR Green, cherry-picked samples (AID 1159567); type: functional, cell-based
# [10] = HepG2 cell cytotoxicity, dose response, cytotoxicity control, cherry-picked samples (AID 1159577); type: functional, cell-based
# [11] = Dose-response inhibition of insulin secretion in a rat insulinoma line at 5 mM glucose (AID 1117331); type: functional, cell-based; details: INS-1E
# cells [12] = type: functional, cell-based; details: INS-1E
# [13] = HeLa 2N DNA content increase, dose response, cell-based, IC50 (AID 1117349); type: functional
# [14] = HeLa 4N DNA content increase, dose response, cell-based, IC50 (AID 1117351); type: functional
smiles,measurement,setting,value
Cc1nc2ccc(Br)cc2c(O)c1CN1CCCCCC1,IC50,[1],> 83.3 µM (inactive)
same,IC50,[2],6.91 µM (active)
same,IC50,[3],4.16 µM (active)
same,IC50,[4],83.3 µM (inactive)
CCOc1ccc(-c2nnn(CC(=O)c3ccc4c(c3)OCCO4)n2)cc1OCC,IC50,Protein Tat,> 100 µM (active)
Oc1ccc(-c2nccc(-c3cccs3)n2)cc1,EC50,[5],> 67.6 µM (inactive)
same,CC50,[6],27.9 µM (active)
same,EC50,cells [7],> 67.6 µM (inactive)
same,AC50,[8],6.5 µM (active)
COc1ccc2c3c(n(C)c2c1)[C@H](CO)NCC31CN(Cc2ccc(-c3ccccn3)cc2)C1,AC50,[9],1.15 µM (active)
same,AC50,[10],11.6 µM (active)
C[C@@H]1CN([C@@H](C)CO)C(=O)c2c(c3ccccc3n2C)-c2ccccc2CO[C@@H]1CN(C)Cc1cccc(F)c1,AC50,[9],3.5 µM (active)
same,AC50,[10],23.5 µM (active)
COc1cc(C(=O)OCCCN2CCCN(CCCOC(=O)c3cc(OC)c(OC)c(OC)c3)CC2)cc(OC)c1OC [DILAZEP],IC50,[11],10.2 µM (inactive)
same,IC50,cells [12],18 µM (inactive)
COc1ccc(-c2nc3cc(C4=NNC(=O)CC4C)ccc3[nH]2)cc1 (configuration not stated) [PIMOBENDAN],IC50,[13],> 10 µM (inactive)
same,IC50,[14],> 10 µM (inactive)
